Consider one molecule from patent US20250223559A1, “AXIOLOID: A STEM CELL-BASED MODEL OF HUMAN AXIAL DEVELOPMENT” (KYOTO UNIVERSITY, priority 2022, published 2025).

This experiment relates to human Axioloids. Description: Axioloid morphogenesis during Matrigel embedding phase (brightfield live imaging, length, segment and somite quantification). To be noted: added during MG embedding phase 72 h-120 h (RA 100 nM, ROL 10 μM, RAL 1 μM); 96 h and 120 h. It is filed as cell-based. How it is done: Human iPS cells were seeded on iMatrix-511 silk (Nippi) coated dishes at a density of 1.3×10^4 cells/well into 6 well plates 5 days prior to Axioloid induction and used at 60% confluency. All subsequent induction steps were performed in AK02N (Reprocell) medium without component C (AK02N-C). Initially, hiPSCs were pulsed with a strong mesoderm and primitive streak fate inducing combination of bFGF (20 ng ml-1) and WNT agonist CHIR99021 (5 μM) for 24 h. CHIR99021 concentration may need to be adjusted depending on the used iPSC line, but remains usually in the range of 3-5 μM. 24 h after the initial pulse, cells were dissociated with Accutase (Thermo Fisher Scientific) and cultured for 24 h in 96-well U-bottom low attachment plates (Sumilon) at 500 cells/well in 50 μl of AK02N—C based aggregation medium supplemented with CHIR99021 (5 μM), basic FGF (20 ng ml^1), TGFβ inhibitor SB431542 (10 μM) and ROCK inhibitor Y27632 (10 μM). 24 h after aggregation, 150 μl of AK02N-C medium was added into each well and exchanged again after 24 h with 150 μl of fresh AK02N-C medium. 48 h after aggregation Axioloids were transferred one-by-one into BSA-treated 96-well flat-bottom low attachment plates (Watson) and embedded into 80 μl of AK02N-C medium containing 10% growth factor-reduced Matrigel (Corning) and cultured further at 37° C. and 5% CO2 for 24 to 48 h. Depending on the experimental setup Retinoic Acid signaling molecules, i.e. Retinoic Acid (RA) (100 nM), Retinol (ROL) (10 μM) or all trans-Retinal (RAL) (1 μM) were added to the MG containing medium throughout the embedding phase. Small molecule inhibitors of FGF (PD173074 (250 nM)), WNT (XAV939 (2 μM)), RA (BMS493 (2.5 μM)) and Notch (DAPT (25 μM)) signaling were also added during the embedding phase and their effects on Axioloids assessed accordingly. For details of the used recombinant human proteins, small molecule agonists and inhibitors, please see Supplementary Table 1. […]
Periodicity of segmentation was quantified from brightfield live-cell imaging data obtained with an inverted Ti2 microscope system (Nikon) using PlanApo λ 10× objective. […]
Quantification of length or intensity based on imaging data was performed using Fiji^57. Rostrocaudal length of formed segments was quantified from a center plane in z-stack images of Phalloidin-stained Axioloids. The longitudinal axes of Axioloids were measured on bright field images using Segmented Line tool. For quantifying fluorescent intensity of HCR or IHC staining, first, maximum intensity z projection images were created from multi-channel z-stack confocal images, then intensity of each channel was quantified along the longitudinal axis of Axioloids by Segmented Line tool, with a line width which corresponds to approximately 80% of the lateral length of Axioloids. […]

For the molecule `CC1=C(/C=C/C(C)=C/C=C/C(C)=C/C=O)C(C)(C)CCC1` [RAL, all trans-Retinal], the “stability and epithelialization of forming segments” value was “dramatic improvement of the stability and epithelialization of forming segments”.
